This assay relates to BDF1 mice, s.c. Lewis lung carcinoma, T/C %. Description: NCI In Vivo Anticancer Drug Screen. Data for tumor model Lewis Lung Carcinoma (subcutaneous) in B6D2F1 (BDF1) mice. The procedure, abridged:
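Readout: survival or tumor size, expressed as treated (T) over vehicle control (C). Transplantable tumor implanted in mice; compound given to the treated group.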

Setting [1] is: endpoint: mean tumor weight, dose: 100.0 mg/kg/injection, schedule: Q01DX011 (ip), vehicle: carboxymethylcellulose (CMC), higher = larger tumour.
[2] abbreviates: endpoint: mean tumor weight, dose: 200.0 mg/kg/injection, schedule: Q01DX011 (ip), vehicle: carboxymethylcellulose (CMC), higher = larger tumour.
[3] abbreviates: endpoint: mean tumor weight, dose: 400.0 mg/kg/injection, schedule: Q01DX011 (ip), vehicle: carboxymethylcellulose (CMC), higher = larger tumour.

Several values for one entry are separate records, joined by “and”; a condition that tells them apart may be missing. Identical values can stand only once. Results filed as inconclusive are left out.

T/C data for 16 compounds are collected here from PubChem BioAssay AID270 (DTP/NCI, 2004).

For the compound `c1ccc2cc3c(cc2c1)Cn1c-3nc2ccccc21`, the T/C is, setting by setting: (endpoint: mean tumor weight, dose: 50.0 mg/kg/injection, schedule: Q01DX011 (ip), vehicle: carboxymethylcellulose (CMC), higher = larger tumour) 64 % of control; (endpoint: mean tumor weight, dose: 55.0 mg/kg/injection, schedule: Q01DX011 (ip), vehicle: carboxymethylcellulose (CMC), higher = larger tumour) 33 % of control and 48 % of control; (endpoint: mean tumor weight, dose: 80.0 mg/kg/injection, schedule: Q01DX011 (ip), vehicle: carboxymethylcellulose (CMC), higher = larger tumour) 52 % of control; under setting [1], 23 % of control; (endpoint: mean tumor weight, dose: 120.0 mg/kg/injection, schedule: Q01DX011 (ip), vehicle: carboxymethylcellulose (CMC), higher = larger tumour) 26 % of control; (endpoint: mean tumor weight, dose: 180.0 mg/kg/injection, schedule: Q01DX011 (ip), vehicle: carboxymethylcellulose (CMC), higher = larger tumour) 34 % of control. The T/C reads like this: under setting [2], 37 % of control; under setting [3], 38 % of control.
With `COC1=C(N)C(=O)c2nc(-c3nc(C(=O)O)c(C)c(-c4ccc(OC)c(OC)c4O)c3N)ccc2C1=O`, the T/C (endpoint: mean tumor weight, dose: 0.06 mg/kg/injection, schedule: Q01DX011 (ip), vehicle: water, higher = larger tumour) was 68 % of control; the T/C (endpoint: mean tumor weight, dose: 0.12 mg/kg/injection, schedule: Q01DX011 (ip), vehicle: water, higher = larger tumour) was 56 % of control; the T/C (endpoint: mean tumor weight, dose: 0.25 mg/kg/injection, schedule: Q01DX011 (ip), vehicle: water, higher = larger tumour) is 42 % of control; the T/C (endpoint: median survival time, dose: 62.5 micrograms/kg/injection, schedule: Q01DX009 (ip), vehicle: saline, higher = longer survival) was 98 % of control; the T/C (endpoint: median survival time, dose: 125.0 micrograms/kg/injection, schedule: Q01DX009 (ip), vehicle: saline, higher = longer survival) is 112 % of control; the T/C (endpoint: median survival time, dose: 250.0 micrograms/kg/injection, schedule: Q01DX009 (ip), vehicle: saline, higher = longer survival) was 98 % of control.
On to `O=C(O)CCC(=O)O`, for which the T/C was 110 % of control (endpoint: median survival time, dose: 0.62 mg/kg/injection, schedule: Q01DX009 (ip), vehicle: water, higher = longer survival); 103 % of control (endpoint: median survival time, dose: 1.25 mg/kg/injection, schedule: Q01DX009 (ip), vehicle: water, higher = longer survival); 93 % of control (endpoint: median survival time, dose: 2.5 mg/kg/injection, schedule: Q01DX009 (ip), vehicle: water, higher = longer survival); 93 % of control and 108 % of control (endpoint: median survival time, dose: 5.0 mg/kg/injection, schedule: Q01DX009 (ip), vehicle: water, higher = longer survival); 102 % of control and 107 % of control (endpoint: median survival time, dose: 10.0 mg/kg/injection, schedule: Q01DX009 (ip), vehicle: water, higher = longer survival); 106 % of control and 115 % of control and 97 % of control (endpoint: median survival time, dose: 20.0 mg/kg/injection, schedule: Q01DX009 (ip), vehicle: water, higher = longer survival). In addition, the T/C (endpoint: median survival time, dose: 40.0 mg/kg/injection, schedule: Q01DX009 (ip), vehicle: water, higher = longer survival) is 96 % of control and 103 % of control and 108 % of control; the T/C (endpoint: median survival time, dose: 80.0 mg/kg/injection, schedule: Q01DX009 (ip), vehicle: water, higher = longer survival) was 104 % of control.
For `CCCCCCCC(=O)O[C@H]1[C@H]2[C@@H](CC1(C)C)C(=O)[C@]13O[C@H]1C(=O)[C@]1(CO1)[C@]23C`, the T/C reads like this: (endpoint: median survival time, dose: 0.31 mg/kg/injection, schedule: Q01DX009 (ip), vehicle: Klucel (hydroxypropylcellulose) (HPC), higher = longer survival) 89 % of control; (endpoint: median survival time, dose: 0.63 mg/kg/injection, schedule: Q01DX009 (ip), vehicle: Klucel (hydroxypropylcellulose) (HPC), higher = longer survival) 90 % of control; (endpoint: median survival time, dose: 1.25 mg/kg/injection, schedule: Q01DX009 (ip), vehicle: Klucel (hydroxypropylcellulose) (HPC), higher = longer survival) 89 % of control; (endpoint: median survival time, dose: 2.5 mg/kg/injection, schedule: Q01DX009 (ip), vehicle: Klucel (hydroxypropylcellulose) (HPC), higher = longer survival) 89 % of control.
As to `O=[N+]([O-])c1ccc(/C=N\Nc2ccc([N+](=O)[O-])cn2)cc1`, the T/C reads like this: (endpoint: median survival time, dose: 12.5 mg/kg/injection, schedule: Q01DX009 (ip), vehicle: Klucel (hydroxypropylcellulose) (HPC), higher = longer survival) 88 % of control; (endpoint: median survival time, dose: 25.0 mg/kg/injection, schedule: Q01DX009 (ip), vehicle: Klucel (hydroxypropylcellulose) (HPC), higher = longer survival) 104 % of control.
Consider `O=NN(CCCl)C(=O)NC1CCC(CC2CCC(NC(=O)N(CCCl)N=O)CC2)CC1` (configuration not stated), for which the T/C (endpoint: median tumor weight (est.), dose: 46.0 mg/kg/injection, schedule: Q01DX001 (ip), vehicle: gum acacia, higher = larger tumour) was 80 % of control; the T/C (endpoint: median tumor weight (est.), dose: 93.0 mg/kg/injection, schedule: Q01DX001 (ip), vehicle: gum acacia, higher = larger tumour) was 76 % of control; the T/C (endpoint: median tumor weight (est.), dose: 187.0 mg/kg/injection, schedule: Q01DX001 (ip), vehicle: gum acacia, higher = larger tumour) is 55 % of control; the T/C (endpoint: median tumor weight (est.), dose: 250.0 mg/kg/injection, schedule: Q01DX001 (ip), vehicle: gum acacia, higher = larger tumour) was 10 % of control; the T/C (endpoint: median tumor weight (est.), dose: 375.0 mg/kg/injection, schedule: Q01DX001 (ip), vehicle: gum acacia, higher = larger tumour) was 3 % of control.
Take `CC(NC(=O)C1(N)CCCC1)C(=O)O` (configuration not stated): the T/C is 59 % of control (endpoint: mean tumor weight, dose: 6.0 mg/kg/injection, schedule: Q01DX011 (ip), vehicle: carboxymethylcellulose (CMC), higher = larger tumour) and 60 % of control (endpoint: mean tumor weight, dose: 25.0 mg/kg/injection, schedule: Q01DX011 (ip), vehicle: carboxymethylcellulose (CMC), higher = larger tumour).
With `CC1(C)N=C(N)N=C(N)N1c1ccc(F)c(C(F)(F)F)c1`, the T/C is 121 % of control (endpoint: median survival time, dose: 12.5 mg/kg/injection, schedule: Q01DX009 (ip), vehicle: saline, higher = longer survival) and 111 % of control (endpoint: median survival time, dose: 25.0 mg/kg/injection, schedule: Q01DX009 (ip), vehicle: saline, higher = longer survival).
Regarding `CC1CC(C)(O)C2C3(C)CCCC2(COC3=O)C12CCC1(CCOC1=O)O2` (configuration not stated), the T/C was 109 % of control (endpoint: median survival time, dose: 2.5 mg/kg/injection, schedule: Q01DX009 (ip), vehicle: saline with Tween-80, higher = longer survival); 108 % of control (endpoint: median survival time, dose: 5.0 mg/kg/injection, schedule: Q01DX009 (ip), vehicle: saline with Tween-80, higher = longer survival); 100 % of control (endpoint: median survival time, dose: 10.0 mg/kg/injection, schedule: Q01DX009 (ip), vehicle: saline with Tween-80, higher = longer survival).
For `CCCCn1cnc2c(SC)nc(N)nc21`, the T/C is, setting by setting: (endpoint: mean tumor weight, dose: 30.0 mg/kg/injection, schedule: Q01DX011 (ip), vehicle: other, higher = larger tumour) 79 % of control; (endpoint: mean tumor weight, dose: 60.0 mg/kg/injection, schedule: Q01DX011 (ip), vehicle: other, higher = larger tumour) 103 % of control; (endpoint: mean tumor weight, dose: 120.0 mg/kg/injection, schedule: Q01DX011 (ip), vehicle: other, higher = larger tumour) 124 % of control.
Take `CCCCOP(=S)(N1CC1)N1CC1`: the T/C runs as follows: (endpoint: mean tumor weight, dose: 2.5 mg/kg/injection, schedule: Q01DX011 (ip), vehicle: saline, higher = larger tumour) 79 % of control; (endpoint: mean tumor weight, dose: 5.0 mg/kg/injection, schedule: Q01DX011 (ip), vehicle: saline, higher = larger tumour) 52 % of control; (endpoint: mean tumor weight, dose: 10.0 mg/kg/injection, schedule: Q01DX011 (ip), vehicle: saline, higher = larger tumour) 23 % of control.
With `NC(Cc1cc([N+](=O)[O-])ccc1CN(CCCl)CCCl)C(=O)O` (configuration not stated), the T/C reads like this: (endpoint: median survival time, dose: 1.0 mg/kg/injection, schedule: Q01DX009 (ip), vehicle: Klucel (hydroxypropylcellulose) (HPC), higher = longer survival) 110 % of control; (endpoint: median survival time, dose: 2.0 mg/kg/injection, schedule: Q01DX009 (ip), vehicle: Klucel (hydroxypropylcellulose) (HPC), higher = longer survival) 116 % of control; (endpoint: median survival time, dose: 3.12 mg/kg/injection, schedule: Q01DX001 (ip), vehicle: Klucel (hydroxypropylcellulose) (HPC), higher = longer survival) 107 % of control; (endpoint: median survival time, dose: 6.25 mg/kg/injection, schedule: Q01DX001 (ip), vehicle: Klucel (hydroxypropylcellulose) (HPC), higher = longer survival) 104 % of control; (endpoint: median survival time, dose: 12.5 mg/kg/injection, schedule: Q01DX001 (ip), vehicle: Klucel (hydroxypropylcellulose) (HPC), higher = longer survival) 103 % of control.
With `NC(Cc1cc(I)c(Oc2ccc(O)c(I)c2)c(I)c1)C(=O)O` (configuration not stated), the T/C reads like this: (endpoint: mean tumor weight, dose: 25.0 micrograms/kg/injection, schedule: Q01DX011 (ip), vehicle: saline, higher = larger tumour) 93 % of control; (endpoint: mean tumor weight, dose: 100.0 micrograms/kg/injection, schedule: Q01DX011 (ip), vehicle: saline, higher = larger tumour) 115 % of control; (endpoint: mean tumor weight, dose: 200.0 micrograms/kg/injection, schedule: Q01DX011 (ip), vehicle: saline, higher = larger tumour) 118 % of control.
As to `COc1c(OC)c(O)c2c(=O)cc(-c3ccc(O)cc3)oc2c1OC`, the T/C was 100 % of control (endpoint: mean tumor weight, dose: 25.0 mg/kg/injection, schedule: Q01DX011 (sc), vehicle: steriod suspending solution, higher = larger tumour); 81 % of control (endpoint: mean tumor weight, dose: 50.0 mg/kg/injection, schedule: Q01DX011 (sc), vehicle: steriod suspending solution, higher = larger tumour); 85 % of control (endpoint: mean tumor weight, dose: 100.0 mg/kg/injection, schedule: Q01DX011 (sc), vehicle: steriod suspending solution, higher = larger tumour); 68 % of control (endpoint: mean tumor weight, dose: 200.0 mg/kg/injection, schedule: Q01DX011 (sc), vehicle: steriod suspending solution, higher = larger tumour).
As for `CS(C)=O`, the T/C by setting is: (endpoint: mean tumor weight, dose: 250.0 mg/kg/injection, schedule: Q01DX011 (ip), vehicle: carboxymethylcellulose (CMC), higher = larger tumour) 68 % of control; (endpoint: mean tumor weight, dose: 500.0 mg/kg/injection, schedule: Q01DX011 (ip), vehicle: carboxymethylcellulose (CMC), higher = larger tumour) 117 % of control; (endpoint: mean tumor weight, dose: 1000.0 mg/kg/injection, schedule: Q01DX011 (ip), vehicle: carboxymethylcellulose (CMC), higher = larger tumour) 86 % of control; (endpoint: mean tumor weight, dose: 2000.0 mg/kg/injection, schedule: Q01DX011 (ip), vehicle: carboxymethylcellulose (CMC), higher = larger tumour) 57 % of control; (endpoint: median survival time, dose: 3.0 grams/kg/injection, schedule: Q01DX009 (ip), vehicle: saline, higher = longer survival) 101 % of control; (endpoint: median survival time, dose: 6.0 grams/kg/injection, schedule: Q01DX009 (ip), vehicle: saline, higher = longer survival) 93 % of control.
In the case of `Nc1nc(N)c(N=O)c(Nc2ccc(Cl)c(Cl)c2)n1`, the T/C reads like this: under setting [1], 23 % of control and 32 % of control; under setting [2], 31 % of control and 52 % of control; under setting [3], 32 % of control and 46 % of control.
